Results reported in ChEMBL document CHEMBL5236660, “Design, synthesis, and biological evaluation of quinoxalinone derivatives as potent BRD4 inhibitors” (Bioorg Med Chem, 2023).

Experiments:
HepG2 [1] = assay: Induction of apoptosis in human HepG2 cells assessed as late apoptotic cells at 5 uM incubated for 24 hrs by Annexin-V/PI staining based flow cytometry (Rvb=0.66%); type: functional
HepG2 [2] = assay: Induction of apoptosis in human HepG2 cells assessed as viable cells at 2.5 uM incubated for 24 hrs by Annexin-V/PI staining based flow cytometry (Rvb=94.0%); type: functional; details: read-out: Activity
HepG2 [3] = assay: Induction of apoptosis in human HepG2 cells assessed as late apoptotic cells at 1.25 uM incubated for 24 hrs by Annexin-V/PI staining based flow cytometry (Rvb=0.66%); type: functional
HepG2 [4] = assay: Induction of apoptosis in human HepG2 cells assessed as viable cells at 1.25 uM incubated for 24 hrs by Annexin-V/PI staining based flow cytometry (Rvb=94.0%); type: functional; details: read-out: Activity
HepG2 [5] = assay: Induction of apoptosis in human HepG2 cells assessed as necrotic cells at 1.25 uM incubated for 24 hrs by Annexin-V/PI staining based flow cytometry (Rvb=0.85%); type: functional
HepG2 [6] = assay: Inhibition of colony formation in human HepG2 cells at 0.625 to 10 uM incubated for 8 days with drug replacement every 2 days by crystal violet staining based imaging analysis; type: functional, cell-based; details: dose 0.625-10 µM, time 8.0 day
HepG2 [7] = assay: Induction of apoptosis in human HepG2 cells assessed as increase in p21 level at 0.625 to 2.5 uM incubated for 24 hrs by Western blot analysis; type: functional, cell-based; details: dose 0.625-2.5 µM
HepG2 [8] = assay: Induction of cell cycle arrest in human HepG2 cells assessed as accumulation at G0/G1 phase at 0.625 uM incubated for 24 hrs by flow cytometry (Rvb= 46.5%); type: functional
HepG2 [9] = assay: Antiproliferative activity against human HepG2 cells assessed as reduction in cell viability incubated for 72 hrs by MTT assay; type: functional, cell-based; details: HepG2, 72 h
HepG2 [10] = assay: Antimigratory activity against human HepG2 cells assessed as inhibition of cell migration at 0.625 to 5 uM measured upto 24 hrs by wound healing assay; type: functional, cell-based; details: dose 0.625-5 µM
HepG2 [11] = assay: Induction of cell cycle arrest in human HepG2 cells assessed as accumulation at G0/G1 phase at 5 uM incubated for 24 hrs by flow cytometry (Rvb= 46.5%); type: functional
HepG2 [12] = assay: Induction of apoptosis in human HepG2 cells assessed as total apoptotic cells at 2.5 uM incubated for 24 hrs by Annexin-V/PI staining based flow cytometry (Rvb=5.14%); type: functional
[13] = biological target: Bromodomain-containing protein 4 (Homo sapiens, UniProt O60885); assay: Inhibition of BRD4 BD1 (unknown origin) by TR-FRET assay
HepG2 [14] = assay: Antimigratory activity against human HepG2 cells assessed as decrease in Snail expression at 0.625 to 2.5 uM incubated 24 hrs by Western blot analysis; type: functional, cell-based; details: dose 0.625-2.5 µM
HepG2 [15] = assay: Induction of cell cycle arrest in human HepG2 cells assessed as accumulation at S phase at 1.25 uM incubated for 24 hrs by flow cytometry (Rvb= 20.1%); type: functional
HepG2 [16] = assay: Induction of apoptosis in human HepG2 cells assessed as early apoptotic cells at 0.625 uM incubated for 24 hrs by Annexin-V/PI staining based flow cytometry (Rvb=4.48%); type: functional
HepG2 [17] = assay: Induction of cell cycle arrest in human HepG2 cells assessed as accumulation at S phase at 0.625 uM incubated for 24 hrs by flow cytometry (Rvb= 20.1%); type: functional
HepG2 [18] = assay: Induction of cell cycle arrest in human HepG2 cells assessed as accumulation at S phase at 5 uM incubated for 24 hrs by flow cytometry (Rvb= 20.1%); type: functional
HepG2 [19] = assay: Antimigratory activity against human HepG2 cells assessed as increase in Occludin expression at 0.625 to 2.5 uM incubated 24 hrs by Western blot analysis; type: functional, cell-based; details: dose 0.625-2.5 µM
HepG2 [20] = assay: Induction of cell cycle arrest in human HepG2 cells assessed as accumulation at G2/M phase at 0.625 uM incubated for 24 hrs by flow cytometry (Rvb= 14.05%); type: functional
HepG2 [21] = assay: Induction of apoptosis in human HepG2 cells assessed as increase in cleaved caspase-3 level at 0.625 to 2.5 uM incubated for 24 hrs by Western blot analysis; type: functional, cell-based; details: dose 0.625-2.5 µM
HepG2 [22] = assay: Induction of apoptosis in human HepG2 cells assessed as necrotic cells at 2.5 uM incubated for 24 hrs by Annexin-V/PI staining based flow cytometry (Rvb=0.85%); type: functional
HepG2 [23] = assay: Induction of apoptosis in human HepG2 cells assessed as late apoptotic cells at 0.625 uM incubated for 24 hrs by Annexin-V/PI staining based flow cytometry (Rvb=0.66%); type: functional
HepG2 [24] = assay: Induction of apoptosis in human HepG2 cells assessed as early apoptotic cells at 5 uM incubated for 24 hrs by Annexin-V/PI staining based flow cytometry (Rvb=4.48%); type: functional
HepG2 [25] = assay: Induction of apoptosis in human HepG2 cells assessed as total apoptotic cells at 5 uM incubated for 24 hrs by Annexin-V/PI staining based flow cytometry (Rvb=5.14%); type: functional
HepG2 [26] = assay: Induction of cell cycle arrest in human HepG2 cells assessed as accumulation at G2/M phase at 5 uM incubated for 24 hrs by flow cytometry (Rvb= 14.05%); type: functional
HepG2 [27] = assay: Induction of apoptosis in human HepG2 cells assessed as viable cells at 0.625 uM incubated for 24 hrs by Annexin-V/PI staining based flow cytometry (Rvb=94.0%); type: functional; details: read-out: Activity
[28] = Cytotoxicity against human GES1 cells assessed as reduction in cell viability incubated for 72 hrs by MTT assay; type: toxicity, cell-based
HepG2 [29] = assay: Antimigratory activity against human HepG2 cells assessed as decrease in MMP-9 expression at 0.625 to 2.5 uM incubated 24 hrs by Western blot analysis; type: functional, cell-based; details: dose 0.625-2.5 µM
HepG2 [30] = assay: Induction of apoptosis in human HepG2 cells assessed as necrotic cells at 5 uM incubated for 24 hrs by Annexin-V/PI staining based flow cytometry (Rvb=0.85%); type: functional
HepG2 [31] = assay: Induction of cell cycle arrest in human HepG2 cells assessed as accumulation at G2/M phase at 2.5 uM incubated for 24 hrs by flow cytometry (Rvb= 14.05%); type: functional
HepG2 [32] = assay: Induction of apoptosis in human HepG2 cells assessed as total apoptotic cells at 0.625 uM incubated for 24 hrs by Annexin-V/PI staining based flow cytometry (Rvb=5.14%); type: functional
HepG2 [33] = assay: Induction of apoptosis in human HepG2 cells assessed as late apoptotic cells at 2.5 uM incubated for 24 hrs by Annexin-V/PI staining based flow cytometry (Rvb=0.66%); type: functional
HepG2 [34] = assay: Inhibition of c-myc expression in human HepG2 cells at 0.625 to 2.5 uM incubated for 24 hrs by Western blot analysis; type: functional, cell-based; details: dose 0.625-2.5 µM
HT-29 = assay: Antiproliferative activity against human HT-29 cells assessed as reduction in cell viability incubated for 72 hrs by MTT assay; type: functional, cell-based; details: HT-29, 72 h
HepG2 [35] = assay: Induction of cell cycle arrest in human HepG2 cells assessed as accumulation at S phase at 2.5 uM incubated for 24 hrs by flow cytometry (Rvb= 20.1%); type: functional

IC50 (HepG2 [9]): 1.13 µM
IC50 [13]: 0.0823 µM
IC50 (HT-29): > 50 µM
Compound: CC(=O)Nc1ccc(Oc2ccc(F)cc2F)c(-c2ccc3[nH]c(=O)c(C)nc3c2)c1
Activity (HepG2 [1]): 1.26%
viability at 2.5 µM (HepG2 [2]): 90.6%
Activity (HepG2 [3]): 1.37%
viability at 1.25 µM (HepG2 [4]): 91.5%
Activity (HepG2 [5]): 0.83%
inhibition (HepG2 [6]): Dose-Dependent Effect
Activity (HepG2 [7]): Dose-Dependent Effect
Activity (HepG2 [8]): 46.1%
inhibition (HepG2 [10]): Dose-Dependent Effect
Activity (HepG2 [11]): 54.9%
Activity (HepG2 [12]): 8.61%
Activity (HepG2 [14]): Dose-Dependent Effect
Activity (HepG2 [15]): 10.2%
Activity (HepG2 [16]): 5.3%
Activity (HepG2 [17]): 20%
Activity (HepG2 [18]): 12.4%
Activity (HepG2 [19]): Dose-Dependent Effect
Activity (HepG2 [20]): 15.5%
Activity (HepG2 [21]): Dose-Dependent Effect
Activity (HepG2 [22]): 0.9%
Activity (HepG2 [23]): 0.96%
Activity (HepG2 [24]): 10.4%
Activity (HepG2 [25]): 11.66%
Activity (HepG2 [26]): 21%
viability at 0.625 µM (HepG2 [27]): 92.9%
IC50 at 72 h [28]: 57.2 µM
Activity (HepG2 [29]): Dose-Dependent Effect
Activity (HepG2 [30]): 0.84%
Activity (HepG2 [31]): 24.4%
Activity (HepG2 [32]): 6.26%
Activity (HepG2 [33]): 1.39%
inhibition (HepG2 [34]): Dose-Dependent Effect
Activity (HepG2 [35]): 9.5%
